Four molecules from US20220241369A1, “COMPOSITIONS AND METHODS OF MODULATING INFLAMMATION” (La Jolla Institute for Allergy and Immunology, priority 2018, published 2022) can be followed below.

“Also recorded” adds a separate entry of the source.

Test [1] concerns CMT-93 murine intestinal epithelial cells. Briefly: HRF secretion into culture supernatant, western blot, CMT-93. Type of test: cell-based, mouse. To be noted: stimulated overnight, 20 or 100 ng/ml. Here is the method:
(§1) FIGS. 4A-4C show HRF is secreted by various cells. CMT-93 murine intestinal epithelial cells (FIG. 4A) and NIH/3T3 murine fibroblasts (FIG. 4B) and Raw264.7 murine macrophages (FIG. 4C) were stimulated overnight with low (20 ng/ml) and high (100 ng/mL) concentrations of various cytokines. HRF secreted into culture supernatants was detected by western blotting. Med and US denote medium only and supernatant from unstimulated cells, respectively. −DTT and +DTT indicate SDS gels were run under non-reducing and reducing conditions, respectively. Gel portions of containing the 23 kDa HRF monomer are shown except that a larger portion of the non-reducing gel is shown in panel C. Arrow indicates the position of HRF dimer, which disappeared under reducing conditions.
(§2) The following cell lines were cultured in DMEM plus 10% FCS except for U-937 cells which were cultured in RPMI1640 plus 10% FCS: CMT-93 mouse and Caco-2 (with 20% FCS) human intestinal epithelial cell lines; NIH/3T3 mouse fibroblast line; Raw 264.7 mouse and U-937 human macrophage lines; BEAS-2B human bronchial epithelial cell line; 293T human embryonic kidney cell line (obtained from ATCC, Manassas, Va., except for NIH/3T3, which was provided by S. A. Aaronson, NIH). Fibroblast-like stromal cells were cultured from small intestines of BALB/c mice in DMEM/10% FBS. CD4^+ T and B cells were purified from mouse spleens using BD IMag™ Mouse CD4 and B cells enrichment set-DM. Low-density bone-marrow cells were cultured in the presence of 100 ng/ml of stem cell factor (PeproTech) and 100 ng/ml of FLT-3 ligand (R&D Systems) for 4 days, and with 10 ng/mL of IL-5 (R&D Systems) thereafter for 10 days to obtain bone marrow-derived eosinophils (44). Bone marrow cells were cultured in the presence of 20 ng/ml of GM-CSF for 6 days and adherent cells were collected as bone marrow-derived macrophages. Non-adherent cells were further cultured with 5 ng/ml GM-CSF and the non-adherent cells were collected as bone marrow-derived dendritic cells. […]

For test [2], the system named is Raw264.7 murine macrophages. Kind of test: HRF secretion into culture supernatant, western blot, macrophages. Type of test: cell-based, mouse. The note with it: stimulated overnight, 20 or 100 ng/ml. Here is the method: as §1, §2
Test [3] deals with BEAS-2B human bronchial epithelial cells. Briefly: HRF secretion, western blot, BEAS-2B. Type of test: cell-based. To be noted: combination of HDM and cytokine, 24 h. An excerpt: As lung epithelial cells are exposed to the environment, HRF secretion was studied using BEAS-2B human bronchial epithelial cells. A small amount of HRF was secreted constitutively, but house dust mite allergens induced the secretion of high-molecular-weight HRF species (HMW-HRFs). Various cytokines including epithelial derived cytokines as well as Th2 cytokines and proinflammatory cytokines further enhanced HDM-induced secretion of HMW-HRFs.
Cultured cells were scraped and treated with adenosine and ATP, which should be abundantly present in inflammatory or injured tissues. These conditions induced secretion of HRF monomer, dimer and HMW-HRFs like stimulation with HDM plus cytokines.
Culture supernatants were analyzed by SDS-PAGE under nonreducing (−DTT) and reducing (+DTT) conditions, followed by western blotting for HRF probing. HDM-induced HRF secretion was enhanced not only by Th2 cytokines (IL-4, IL-5, and IL-13), but also by epithelial derived cytokines (IL-25, IL-33, and TSLP) and proinflammatory cytokines (IL-1beta, IL-6 and TNF). med, medium alone; US, unstimulated; HDM, house dust mite; CR, cockroach; RW, ragweed; Af, Aspergillus fumigatus. Arrowhead, HRF monomer.

The subject of test [4] is OVA-induced food allergy (allergic diarrhea). Kind of test: IgE-mediated experimental food allergy, i.g. pretreatment with HRF inhibitor before each OVA challenge. Type of test: in vivo, mouse. On the procedure:
FIGS. 1A-1I show GST-N19 inhibits the development of diarrhea and intestinal mastocytosis in murine food allergy. Mice were i.p. sensitized with OVA ([…]) plus alum on days 0 and 14. From day 28, mice were i.g. challenged with OVA (50 mg) three times a week. Sensitized mice were either non-pretreated (−) or i.g. pretreated with 100 μg of GST or GST-N19 (N19). (FIG. 1A) Procedure scheme. (FIG. 1B) The development of diarrhea was monitored for 90 min after each OVA challenge. (n=5 for non-sensitized group, n=3 for inhibitor non-pretreated group, n=4 for GST group, n=6 for N19 group, data are representative of at least 3 independent experiments) Log-rank test: p=0.028 (GST vs. GST-N19), p=0.036 (control vs. GST-N19). […] (FIG. 1C-FIG. 1E) Total IgE, IgG1, HRF, and HRF-reactive IgE and IgG in sera were measured by ELISA. (FIG. 1F) Serum mMCP-1 was also measured by ELISA. (FIG. 1G) Sections of jejunum were stained with chloroacetate esterase to identify mast cells. Sections indicated by rectangles are enlarged in lower rows. Bar=100 μm in large pictures and 50 μm in insets. (FIG. 1H) Flow cytometry was performed to enumerate MMC9s (Lin^−c-Kit^+ST2^+IL-17RB^−Integrin β7^lo) in jejunum. (n=14 for non-sensitized group, n=15 for inhibitor non-pretreated group, n=9 for GST group, n=9 for GST-N19 group, pooled data of 3 independent experiments) (FIG. 1I) Cytokine mRNAs in jejunum were quantified by qRT-PCR. *, **: p<0.05, p<0.01 by ANOVA with Tukey's multiple comparison.
Mice were i.p. sensitized with OVA (50 μg/mouse) plus alum on days 0 and 14. From day 28, mice were i.g. challenged with OVA (25 or 50 mg) or PBS (control) three times a week. Before each challenge, mice were starved for 3 h, then i.g. pretreated with GST, GST-N19 (100 μg/mouse), synthetic N19 peptide, or HRF-2CA. The development of diarrhea was monitored for 90 min after OVA challenge. Diarrhea severity (30) was based on states of stool: solid (score 0), funicular (score 1), slurry (score 2), and watery (score 3).
For histologic analysis, jejunal tissue was fixed in 10% formalin. Mast cells in jejunal sections were detected by chloroacetate esterase staining. IgE, IgG, IgG1, IgG2a, mMCP-1, HRF, HRF-reactive IgE, and HRF-reactive IgG 24 h after the last OVA challenge were measured by ELISA (see Supplemental Information). Cytokine mRNAs in jejunum were quantified by qRT-PCR.
Twenty-four hours after the last OVA challenge, mice were sacrificed and small intestines (0.5-15 cm from stomach) were collected. The intestinal tissues were opened longitudinally and washed with HBSS. The washed tissues were incubated with 5 mM EDTA-HBSS for 30 min at 4° C., transferred to 30 ml HBSS in 50 ml tubes, and vigorously shaken to remove intestinal epithelial cells. The tissues were then washed with 10 ml of 10% FCS RPMI medium. Tissues were cut into tiny pieces and incubated with 2.4 mg/ml Collagenase D and 0.2 mg/ml DNase for 30 min at 37° C. Then cells were washed, resuspended in 44% Percoll solution, and slowly loaded on the top of 67% Percoll solution. The cells were centrifuged (1800 rpm, 20 min) and lymphocyte fractions were collected and used for detection of MMC9s (Lin^−c-Kit^+ST2^+IL-17RB^−Integrin β7^lo).
The cells were first incubated with 2.4G2 for 15 min at 4° C. and further incubated with Abs (PE-anti-07 integrin mAb (clone FIB504), PerCP/Cy5.5-anti-CD4 mAb (clone RM4-5), PerCP/Cy5.5-anti-CD8 mAb (clone 53-6.7), PerCP/Cy5.5-anti-CD11b mAb (clone M1/70), PerCP/Cy5.5-anti-CD11c mAb (clone N418), PerCP/Cy5.5-anti-B220 mAb (RA3-6B2), PerCP/Cy5.5-anti-Ly-6G/Ly-6C mAb (clone RB6-8C5), PerCP/Cy5.5-anti-CD335 mAb (clone 29A1.4), AlexaFluor647-anti-IL-17RB (clone 9B10), APC/Cy7-anti-CD117 (clone 2B8), Biotin-anti-ST2 (clone DIH9)) (Biolegend) for 30 min at 4° C. After washed, the cells were incubated with SA-BV421 (Biolegend) for 30 min at 4° C. MMC9 population was identified using FACS Canto. Data were analyzed using FlowJo software.

Test [5] has as its system sensitization phase of murine food allergy. Kind of test: Pretreatment with HRF inhibitor before sensitization with OVA plus alum. The test is classed as in vivo, mouse. The note with it: 100 μg i.g. one day before i.p. immunization on days 0 and 14. On the procedure:
Mice were i.g. pretreated with 100 μg of GST, GST-N19, HRF-2CA or PBS (OVA) one day before i.p. immunization with OVA plus alum on days 0 and 14. From day 28, mice were i.g. challenged with OVA three times a week. (FIG. 9A) Procedure scheme. (FIG. 9B) The development of diarrhea was monitored after OVA challenge. (n=5 for OVA, n=4 for GST, n=5 for N19, n=5 for 2CA, and n=3 each for unsensitized pretreated groups (not shown)). (FIG. 9C, FIG. 9D) Total IgE and IgG1 were measured by ELISA.
Whether HRF inhibitors affect the sensitization phase of food allergy was tested.

Another test deals with IgE+ mMCP-1+ mast cells. Briefly: Localization of gavaged HRF inhibitors in jejunum by confocal microscopy. Type of test: in vivo, mouse. On the procedure:
HRF multimers in the jejunum of non-sensitized/OVA challenged (Cont, n=6) or OVA-sensitized/OVA-challenged (OVA, n=5) mice were quantified by a newly developed ELISA (FIG. 3A, FIG. 3C). HRF was also measured by ELISA (FIG. 3B). HRF dimer and monomer were quantified by western blotting in control (Cont) and food allergic mice treated without (OVA) or with GST (GST) or GST-N19 (N19) (n=5 for each group) (FIG. 3D). Allergic diarrhea was induced by 6 challenges. On the day of 7th challenge, the mice were gavaged with 0.1 mg of GST or GST-N19 (FIG. 3E). One hour later, mice were sacrificed without OVA challenge. Jejunum tissues were stained for GST, IgE, and mMCP-1 before confocal microscopy (n=5 for GST and n=6 for GST-N19). Arrows indicate cells positive for GST or GST-N19 as well as IgE and mMCP-1. […] Bars=50 μm.
Jejunum biopsy was fixed in 4% paraformaldehyde at 4° C., washed in 10-20% sucrose in phosphate buffered saline, and embedded in O.C.T. compound (Sakura Finetek, Japan). Cyrosections were made in 6 μm and blocked with 2% skim milk. Immunostaining was performed with anti-HRF (rabbit polyclonal FL-172), anti-GST (rabbit polyclonal Z-5) (Santa Cruz Biotechnology), anti-IgE (clone RME-1 from Biolegend and clone R35-72 from BD Biosciences), anti-mMCP1 (Catalog #AF5146, R&D Systems), anti-CD45 (clone 30-F11), anti-CD63 (clone NVG-2) (Biolegend), and anti-Siglec F (clone E50-2440, BD Biosciences) as primary antibodies, and anti-Rabbit Alexa Fluor 647 (Catalog #A21245), anti-Rat Alexa Fluor 568 (Catalog #A11077), and anti-Sheep Alexa Fluor 555 (Catalog #A11015) (Thermo Fisher Scientific) as secondary antibodies. Coverslips were mounted with Prolong Gold with DAPI (Thermo Fisher Scientific) and fluorescence was observed under Leica TCS SP2 confocal microscopy (Leica) and Nuance Multi spectral Imaging System (PerkinElmer).
Applicant next tested whether HRF inhibitors target mucosal mast cells. To this end, mice with allergic diarrhea were i.g. gavaged with GST-N19 or GST, and their location was identified 1 h after their gavage.

Another test addresses anti-TNP IgE C38-2. Kind of test: cell-based or functional assay.
Where [6] appears, read: sensitized mice pretreated i.g. with 100 μg before each OVA challenge.

For IL-6: proinflammatory cytokine, in test [1], the HRF secretion result is “strongly induced”. In test [2], the “secretion of HRF monomer” value is “increased”. For the same molecule, in test [3], the “HDM-induced HRF secretion” value was “enhanced”.
Regarding “GST-N19: GST-tagged N-terminal 19 amino acids of HRF; HRF inhibitor”, the “serum mMCP-1 level” value in test [4] (i.g. pretreatment before each OVA challenge, ELISA) is reported as “reduced”. Besides, in test [4] (i.g. pretreatment before each OVA challenge, chloroacetate esterase staining), the “number of mucosal mast cells in jejunum (intestinal mastocytosis)” value is recorded as “inhibits; also recorded: reduced”. The MMC9s in jejunum result in test [4] (i.g. pretreatment, flow cytometry) is on record as “reduced”. Moreover, the “Th2 cytokine mRNAs (Il4 and Il13) in jejunum” value in test [4] (i.g. pretreatment, qRT-PCR) was “repressed”. Besides, in test [4] (i.g. pretreatment, serum ELISA), the “levels of total IgE, IgG1, IgG2a or HRF-reactive IgE and IgG” value is “not reduced”. Further, in test [4] (setting [6]), the “diarrhea occurrence / incidence” value was “inhibits; also recorded: reduced” and the onset of diarrhea entry was “delayed”. Further, in test [5], the “sensitization phase of murine food allergy” value was “do not affect”. Further, the “targeting of mast cells in jejunum” value with IgE+ mMCP-1+ mast cells (after i.g. gavage) was “preferentially targets”. Besides, the “IgE+ mMCP-1+ mast cells co-localized with the substance” value with IgE+ mMCP-1+ mast cells (mice with allergic diarrhea, 1 h after i.g. gavage of 0.1 mg, anti-GST staining) is given as “about 65%”.
With IL-13: Th2 cytokine, the HRF secretion result in test [1] was “strongly induced”. In test [2] (non-reducing gel), the HRF dimer result is reported as “increased”. In addition, the “HDM-induced HRF secretion” value in test [3] is listed as “enhanced”.

B1: recombinant dimeric murine HRF (HRF-His6, Sephacryl fraction Fr1) (ligand)
chain: MIIYRDLISHDELFSDIYKIREIADGLCLEVEGKMVSRTEGAIDDSLIGGNASAEGPEGEGTESTVVTGVDIVMNHHLQETSFTKEAYKKYIKDYMKSLKGKLEEQKPERVKPFMTGAAEQIKHILANFNNYQFFIGENMNPDGMVALLDYREDGVTPFMIFFKDGLEMEKCHHHHHH
modifications: disulfide bond Cys172-Cys172 between the two monomers
On to B1, for which, in the test with anti-TNP IgE C38-2, the EC50 of antigen TNP3-BSA for IL-13 release from C38-2-sensitized mouse BMMCs in the presence of 25 µg/ml mHRF dimer (156 ng/ml for 0 µg/ml mHRF dimer) amounted to 0.124 mg/L and the EC50 of antigen TNP3-BSA for IL-13 release from C38-2-sensitized mouse BMMCs in the presence of 50 µg/ml mHRF dimer (156 ng/ml for 0 µg/ml mHRF dimer) amounted to 0.092 mg/L.
